Assay results published in PubChem BioAssay (NCI).
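Five concentrations, 48 hours, 96-well plates. Here, GI50 denotes the concentration required for 50% inhibition of growth. The concentration for full growth arrest is given as TGI.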

How the values were obtained:
Experiment in all cases: NCI tumour cell line growth inhibition, 48 h
M14 melanoma = tested on: M14 melanoma
SF-295 CNS = tested on: SF-295 CNS
HOP-92 NSCLC = tested on: HOP-92 NSCLC
HCC-2998 colon = tested on: HCC-2998 colon
SF-268 CNS = tested on: SF-268 CNS
SNB-19 CNS = tested on: SNB-19 CNS
LOX IMVI melanoma = tested on: LOX IMVI melanoma
HCT-116 colon = tested on: HCT-116 colon
BT-549 breast = tested on: BT-549 breast
SF-539 CNS = tested on: SF-539 CNS
UACC-257 melanoma = tested on: UACC-257 melanoma
OVCAR-5 ovarian = tested on: OVCAR-5 ovarian
OVCAR-3 ovarian = tested on: OVCAR-3 ovarian
SK-OV-3 ovarian = tested on: SK-OV-3 ovarian
SK-MEL-28 melanoma = tested on: SK-MEL-28 melanoma
OVCAR-8 ovarian = tested on: OVCAR-8 ovarian
NCI-H23 lung = tested on: NCI-H23 lung
TK-10 renal = tested on: TK-10 renal
PC-3 prostate = tested on: PC-3 prostate
T-47D breast = tested on: T-47D breast
OVCAR-4 ovarian = tested on: OVCAR-4 ovarian
CAKI-1 renal = tested on: CAKI-1 renal
UO-31 renal = tested on: UO-31 renal
A498 renal = tested on: A498 renal
MOLT-4 leukemia = tested on: MOLT-4 leukemia
NCI/ADR-RES ovarian = tested on: NCI/ADR-RES ovarian
NCI-H460 lung = tested on: NCI-H460 lung
HS 578T breast = tested on: HS 578T breast
K-562 leukemia = tested on: K-562 leukemia

Q: What does the source list for `O=C1c2cc(Cl)ccc2-c2c1c1ccc([N+](=O)[O-])cc1c(=O)n2CCCBr`?
A: TGI (M14 melanoma): 64.2 µM; GI50 (SF-295 CNS): 2.63 µM; TGI (SF-295 CNS): > 100 µM; GI50 (HOP-92 NSCLC): 0.539 µM; TGI (HOP-92 NSCLC): 8.98 µM; GI50 (HCC-2998 colon): 42.6 µM; TGI (HCC-2998 colon): > 100 µM; GI50 (SF-268 CNS): 1.65 µM; TGI (SF-268 CNS): > 100 µM; GI50 (SNB-19 CNS): 3.74 µM; TGI (SNB-19 CNS): > 100 µM; GI50 (LOX IMVI melanoma): 2.37 µM; TGI (LOX IMVI melanoma): 24 µM; GI50 (HCT-116 colon): 3.48 µM; TGI (HCT-116 colon): > 100 µM; GI50 (BT-549 breast): 34.2 µM; TGI (BT-549 breast): > 100 µM; GI50 (SF-539 CNS): 3.94 µM; TGI (SF-539 CNS): > 100 µM; GI50 (UACC-257 melanoma): 41.4 µM; TGI (UACC-257 melanoma): > 100 µM; GI50 (OVCAR-5 ovarian): > 100 µM; TGI (OVCAR-5 ovarian): > 100 µM; GI50 (OVCAR-3 ovarian): 36.6 µM; TGI (OVCAR-3 ovarian): > 100 µM; GI50 (SK-OV-3 ovarian): 7.79 µM; TGI (SK-OV-3 ovarian): > 100 µM; GI50 (SK-MEL-28 melanoma): 33.5 µM; TGI (SK-MEL-28 melanoma): > 100 µM; GI50 (OVCAR-8 ovarian): 8.35 µM; TGI (OVCAR-8 ovarian): > 100 µM; GI50 (NCI-H23 lung): 8.27 µM; TGI (NCI-H23 lung): > 100 µM; GI50 (TK-10 renal): 61.9 µM; TGI (TK-10 renal): > 100 µM; GI50 (PC-3 prostate): 19.2 µM; TGI (PC-3 prostate): > 100 µM; GI50 (T-47D breast): 3.23 µM; TGI (T-47D breast): 33.8 µM; GI50 (OVCAR-4 ovarian): 78.2 µM; TGI (OVCAR-4 ovarian): > 100 µM; GI50 (CAKI-1 renal): 1.72 µM; TGI (CAKI-1 renal): 19.3 µM; GI50 (UO-31 renal): 2.64 µM; TGI (UO-31 renal): 31 µM; GI50 (A498 renal): 24.2 µM; TGI (A498 renal): > 100 µM; GI50 (MOLT-4 leukemia): 1.84 µM; TGI (MOLT-4 leukemia): 8.04 µM; GI50 (NCI/ADR-RES ovarian): 5.01 µM; TGI (NCI/ADR-RES ovarian): > 100 µM; GI50 (NCI-H460 lung): 0.931 µM; TGI (NCI-H460 lung): > 100 µM; GI50 (HS 578T breast): > 100 µM; TGI (HS 578T breast): > 100 µM; GI50 (K-562 leukemia): 4.46 µM; TGI (K-562 leukemia): > 100 µM
